Results published in patent publication US6403626B1, “Benzimidazole derivatives” (Synaptic Pharmaceutical Corporation, priority 1994, dated 2002).

Experiments:
[1] = biological target: T1, α2B Human Adrenergic Receptor (Homo sapiens, UniProt P18089); assay: Equilibrium competition binding, [3H] rauwolscine, membranes of transfected Y-1 cells; details: cloned human receptor; [3H] rauwolscine; read-out: pKi Alpha-2 B (converted)
T1 construct: expressed in transfected cells; host or cells: Y-1 cells
T1 sequence (P18089 1-450): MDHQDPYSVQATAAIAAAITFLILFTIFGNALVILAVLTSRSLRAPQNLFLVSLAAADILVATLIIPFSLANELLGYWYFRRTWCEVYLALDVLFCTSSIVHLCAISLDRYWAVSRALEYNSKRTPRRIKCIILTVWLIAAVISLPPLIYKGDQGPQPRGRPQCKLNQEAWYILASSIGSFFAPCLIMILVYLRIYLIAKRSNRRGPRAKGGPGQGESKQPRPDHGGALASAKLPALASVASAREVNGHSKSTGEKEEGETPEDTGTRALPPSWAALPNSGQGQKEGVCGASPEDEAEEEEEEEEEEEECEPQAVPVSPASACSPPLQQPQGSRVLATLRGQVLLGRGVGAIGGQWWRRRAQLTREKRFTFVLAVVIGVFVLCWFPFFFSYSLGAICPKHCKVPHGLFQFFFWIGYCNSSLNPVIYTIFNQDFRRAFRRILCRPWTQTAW

[2] = biological target: T1, α2B Human Adrenergic Receptor; assay type: cell-based
Method: (§1) Binding and functional assays were performed using stably transfected human alpha adrenergic receptors. Equilibrium competition binding assays were performed with membrane preparations from cultured LM(tk-) cells stably transfected with the cloned human adrenoceptor subtypes except for α2b, which was expressed in Y-1 cells, using [^3H] prazosin for α1 receptors and [^3H] rauwolscine for α2 receptors.
Stable cell lines were selected as described above.
(§2) The agonist activity (expressed as pEC50) was measured as a function of the ability to inhibit the forskolin-stimulated synthesis of cyclic adenosine monophosphate (cAMP). The stably transfected cells were incubated in Ham's F10 with 5 mM theophylline, 10 mM HEPES, 10 μM pargyline, and/or appropriate concentrations of forskolin for 20 min at 37° C. in 5% CO2. The tested compounds were then added to a final concentration of 0.001 nM to 1 μM and incubated for an additional 15 min at 37° C. in 5% CO2. The medium was aspirated and the reaction was stopped by the addition of 100 mM HCl . […] The plates are stored at 4° C. for 15 min and assayed to determine the linear concentration of cAMP. The appropriate dilution is interpolated from the standard curve of cold cAMP. The assessment of cAMP formation is determined by radioimmunoassay (cAMP radioimmunoassay kit; Advanced Magnetics, Cambridge, Mass.). Radioactivity was quantified using a Packard COBRA Auto Gamma counter, equipped with data reduction software.

[3] = biological target: α2C Human Adrenergic Receptor (Homo sapiens, UniProt P18825); assay: Equilibrium competition binding, [3H] rauwolscine, membranes of transfected LM(tk-) cells
[4] = biological target: T2, α2C Human Adrenergic Receptor (Homo sapiens, UniProt P18825); assay type: cell-based; design: The entire coding region of α2C (1383 bp), including 2 bp of 5′ UT and 400 bp of 3′ UT; expressed in transfected cells; host or cells: LM(tk-) cells; details: functional cAMP assay
T2 sequence (P18825 1-462): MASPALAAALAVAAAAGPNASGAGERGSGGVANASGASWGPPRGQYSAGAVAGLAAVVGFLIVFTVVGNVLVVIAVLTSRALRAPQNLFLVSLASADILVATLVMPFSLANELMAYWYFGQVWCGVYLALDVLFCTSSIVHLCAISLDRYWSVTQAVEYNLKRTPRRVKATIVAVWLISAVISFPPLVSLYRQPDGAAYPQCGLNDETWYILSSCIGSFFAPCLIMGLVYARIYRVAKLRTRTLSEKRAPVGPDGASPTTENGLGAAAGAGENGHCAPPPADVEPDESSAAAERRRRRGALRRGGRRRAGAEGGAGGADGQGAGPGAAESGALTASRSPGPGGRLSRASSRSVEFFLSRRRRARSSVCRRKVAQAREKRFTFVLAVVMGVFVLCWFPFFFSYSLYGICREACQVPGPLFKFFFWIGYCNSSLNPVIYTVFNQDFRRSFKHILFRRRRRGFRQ
Method: as §1
The insert housing this coding region was an @ 1.8 kb Ncol/EcoRI human spleen genomic fragment which was end-blunted by either T4 polymerase or Klenow fragment of DNA polymerase. Stable cell lines were selected as described above.
as §2

[5] = tested on: rats; details: systematic administration, reversed by atipamazole or idazoxan; cited from earlier work

In the case of `Ic1cc(NC2=NCCN2)cc2[nH]cnc12` [Example 54, 7-Iodo-5-(2-imidazolin-2-ylamino)Benzimidazole], the Ki [1] is reported as 27.5 nM, the “I.A Alpha-2 B” value ([2]; functional cAMP assay) is reported as 0.60 and the EC50 ([2]; inhibition of forskolin-stimulated cAMP, NA: Not Active, read-out: pEC50 Alpha-2 B (converted)) is reported as 138 nM. For the same molecule, the Ki [3] was 200 nM and the “I.A Alpha-2 C” value [4] was 0.90.

For `Cc1cccc(C(C)c2cnc[nH]2)c1C` (stereo not drawn) [Medetomidine], the antinociception [5] is listed as “dose-dependent antinociception”.
